# Reference: paper PMC7162492, “Pharmacological and pharmacokinetic profile of the novel ocular hypotensive prodrug CKLP1 in Dutch-belted pigmented rabbits” (PLoS ONE, 2020)
# Where “and” joins values, the source holds several entries; their conditions need not be identical. Equal entries are not always repeated. Entries after “also recorded” stand apart in the source; their conditions may differ.
# Experiments:
# Format in all cases: in vivo
# [1] = tested on: Dutch-belted pigmented rabbits; test: Tolerability observation during topical CKLP1 treatment for 1, 4 or 8 days; conditions: topical CKLP1 both eyes for 1, 4 or 8 days
# Text: (§1) All experiments with animals were pre-approved by the Institutional Animal Care and Use Committee of the Mayo Clinic, Rochester, MN and adhered to the recommendations in the Guide for the Care and use of Laboratory Animals of the National Institutes of Health, and the tenets of the ARVO Statement for the Use of Animals in Vision Research. Female Dutch-belted pigmented rabbits (age 7 months) were obtained from Covance Research Products, Inc. (Denver, PA). Rabbits were housed in pairs and kept in a climate controlled room with 12 h light and dark cycles. Animals had unrestrained access to water and standard rabbit food pellets at all times. Upon receipt, animals were acclimated for at least 5 days before initiation of the experiment. IOP was measured with a handheld rebound tonometer (Icare Tonovet, Colonial Medical Supply, Franconia, NH, USA) in conscious and minimally restrained, non-anesthetized rabbits as previously described. Briefly, daily IOP was calculated from the average of 3 independent IOP measurements at 3 different time points each day. These time points corresponded to 1 h, 4 h and 23 h post treatment on any given day. Rabbits that needed to be handled for IOP were subjected to sham IOP measurements for two days prior to initiation of experiment. […]
# [2] = tested on: IOP in Dutch-belted pigmented rabbits; test: IOP measurement by rebound tonometer during 90 days of topical CKLP1
# Text: All experiments with animals were pre-approved by the Institutional Animal Care and Use Committee of the Mayo Clinic, Rochester, MN and adhered to the recommendations in the Guide for the Care and use of Laboratory Animals of the National Institutes of Health, and the tenets of the ARVO Statement for the Use of Animals in Vision Research. Female Dutch-belted pigmented rabbits (age 7 months) were obtained from Covance Research Products, Inc. (Denver, PA). Rabbits were housed in pairs and kept in a climate controlled room with 12 h light and dark cycles. Animals had unrestrained access to water and standard rabbit food pellets at all times. Upon receipt, animals were acclimated for at least 5 days before initiation of the experiment. IOP was measured with a handheld rebound tonometer (Icare Tonovet, Colonial Medical Supply, Franconia, NH, USA) in conscious and minimally restrained, non-anesthetized rabbits as previously described. Briefly, daily IOP was calculated from the average of 3 independent IOP measurements at 3 different time points each day. These time points corresponded to 1 h, 4 h and 23 h post treatment on any given day. Rabbits that needed to be handled for IOP were subjected to sham IOP measurements for two days prior to initiation of experiment. Rabbits (n = 3) were injected intravenously through the right ear vein with CKLP1 as a bolus dose equal to 0.25 mg/kg body weight. Additional rabbits were treated topically through instillation of 50 μl eye drops of a 10 mM (4.1 mg/ml) solution of CKLP1 in sterile PBS. Topical CKLP1 application was continued once daily (9:30 am every day) for either 1 (n = 3), 4 (n = 3), 8 (n = 3) or 90 days (n = 6). In the 1, 4 and 8 day groups, drug was added to both eyes, whereas in the 90 day group, CKLP1 was added to one eye while the contralateral eye received vehicle (PBS, Corning, Manassas, VA).
# IOP values are represented as mean ± standard deviation. IOP differences between treated and control eyes were compared using two-tailed paired Student’s t-test. Pharmacokinetic parameters (Cmax, Tmax, AUC and concentration of CKLP1 and levcromakalim) across various days following treatment were compared with one-way ANOVA. Criterion for statistically significant difference of means was set at p<0.05. Statistical analyses were performed using Microsoft Excel and its data analysis add-on feature.
# [3] = tested on: Dutch-belted pigmented rabbits; test: Histology of tissues at necropsy after 90 days of topical CKLP1; conditions: topical CKLP1 once daily, masked veterinary pathologist
# Text: as §1, with “day.” for “day. These time points corresponded to 1 h, 4 h and 23 h post treatment on any given day. Rabbits that needed to be handled for IOP were subjected to sham IOP measurements for two days prior to initiation of experiment.”
# To assess cell and tissue morphology following CKLP1 treatment for 90 days, necropsy was performed on all 6 treated rabbits. Representative hematoxylin and eosin stained sections from 34 tissues were isolated, processed and assessed in a masked manner by a certified veterinary pathologist. […]
# [4] = 10 mM CKLP1 eye drop daily, 90 days
substance,measurement,setting,value
"sodium [CKLP1, sodium [(3S,4R)-6-cyano-2,2-dimethyl-4-(2-oxopyrrolidin-1-yl)-chroman-3-yl phosphate]]","Tolerability, visible signs of toxicity or discomfort",[1],no visible signs of toxicity or discomfort
same,IOP drop in the treated eye compared to baseline,[2]; [4],11.4 ± 4.7% and 11.4%
same,IOP reduction in treated eye compared to contralateral vehicle treated eye,[2]; [4],14.1 ± 1.0%
same,IOP absolute change in treated eyes compared to control eyes,"[2]; 10 mM CKLP1 eye drop daily, 90 days, n = 6",2.4 ± 0.4 mmHg
same,IOP in the treated eye,"[2]; 10 mM CKLP1 eye drop daily, 90 days, baseline 16.5 ± 0.7",14.6 ± 1.0 mm Hg
same,Average IOP in treated eyes post treatment (washout group),"[2]; after cessation of 90-day treatment, n = 3, baseline 16.5 ± 0.7",15.6 ± 0.6 mm Hg
same,Histological changes in tissues,[3],No observable histological changes; also recorded: did not show any observable histological changes; also recorded: No observable differences in histology
